# Experimental data as given in patent US20080070924A1 (priority 2003, published 2008).
# Where two headings read alike, the source gives them in different places.
# How the values were obtained:
# [1] = system: ricinus oil-induced diarrhea; conditions: in vivo; for effect on ricinus oil-induced diarrhea: sc
# [2] = system: ricinus oil-induced diarrhea; test: whole plant or invertebrate; conditions: in Meriones unguiculatus, sc, 8 h, read-out: ED50 of the opioid to postpone the ricinus oil-induced diarrhea
# [3] = system: opioid-induced PCO2 increases; conditions: rat, in vivo, sc
# charcoal propulsion [4] = system: charcoal propulsion; parameters: species or system rats; conditions: rat, in vivo
# [5] = system: opioid-induced PCO2 increases; conditions: guinea pig, in vivo
# [6] = system: ricinus oil-induced diarrhea; conditions: rat, in vivo
# [7] = system: acetone-induced lifting behaviour; test: Tolerance in a chronic neuropathic pain model (CCI gerbils, acetone spray test); format: in vivo
# morphine-induced emesis = test: Inhibition of morphine-induced emesis in ferrets
# [8] = system: opioid-induced PCO2 increases; conditions: in vivo
# charcoal propulsion [9] = conditions: in vivo
molecule,measurement,setting,value
"COc1ccc2c3c1O[C@H]1[C@@H](O)C=C[C@H]4[C@@H](C2)N(C)CC[C@@]341 [Codeine, codeine]",effect on ricinus oil-induced diarrhea,[1],dose-dependent inhibition
"CN1CC[C@]23c4c5ccc(O)c4O[C@H]2[C@@H](O)C=C[C@H]3[C@H]1C5 [Morphine, morphine]",ED50,[2],0.72 mg/kg
same,PCO2 after opioid,[3],increased levels of PCO2
same,charcoal test result in rats compared with gerbils,charcoal propulsion [4],comparable results
same,effect on ricinus oil-induced diarrhea,[1],dose-dependent inhibition
same,PCO2 after opioid,[5]; sc,increase in PCO2
same,effect on ricinus oil-induced diarrhea,[6]; sc,dose-dependent inhibition
same,"acetone-induced lifting behaviour, acute effect",[7]; 2.5 mg/kg i.p. twice daily,acutely reduced
same,acetone-induced lifting behaviour at day 7,"[7]; 2.5 mg/kg i.p. twice daily, reductions of activity from the second day onwards",no differences with the controls
same,doses causing central side-effects,morphine-induced emesis; i.p.,> 0.8 mg/kg
same,emesis on increasing the dose from 0.4 to 0.8 mg/kg,morphine-induced emesis; i.p.,"more animals with emesis and increased frequencies of periods of emesis, retches and vomiting"
"COc1ccc2c3c1O[C@H]1C(=O)CC[C@@]4(O)[C@@H](C2)N(C)CC[C@]314 [Oxycodone, oxycodone]",ED50,[2],5.02 mg/kg
same,effect on ricinus oil-induced diarrhea,[1],dose-dependent inhibition
"(+)-(B)-trans-4-[1-[3,5-bis(trifluoromethyl)benzoyl]-2-(phenylmethyl)-4-piperidinyl]-N-(2,6-dimethylphenyl)-1-piperazine acetamide (L)-malic acid (1:1) [Compound 95]","effect on PCO2, given alone",[3]; 40 mg/kg,did not affect the PCO2 levels
same,effect on opioid-induced increases in PCO2,[3]; 40 mg/kg,some attenuation
same,number of animals reaching high (>50 mm Hg) levels of PCO2,[3]; 40 mg/kg,especially reduced
same,charcoal test result in rats compared with gerbils,charcoal propulsion [4],comparable results
same,effect of adding to the opioids on their ED50s,[1],did not alter the ED50s of the opioids
same,"effects on constipation, given alone",[1],minimal effects
same,"effect on PCO2, given alone",[8],no effects were observed
same,effect on opioid-induced PCO2 levels,[8],significant decreases
same,effect of adding to the opioids on charcoal propulsion,charcoal propulsion [9],did not affect the outcome of the opioids
same,"effect on charcoal propulsion, given alone",charcoal propulsion [9],inactive
same,"effect on PCO2, given alone",[5],did not affect PCO2 values
same,effect on opioid-induced PCO2 levels,[5],reductions in the opioid-induced PCO2 levels
same,effect of adding to the opioids on their ED50s,[6],did not alter the ED50s of the opioids
same,"effects on constipation, given alone",[6],minimal effects
same,"acetone-induced lifting behaviour, given alone","[7]; 2.5 mg/kg i.p. twice daily, 11 days, during some days of the experiment",limited activity
same,"activity over the testing period, combination with morphine","[7]; 2.5 mg/kg morphine with 2.5 mg/kg Compound 95 i.p. twice daily, 11 days",the activity remained present over the entire testing period
same,"frequency of retches, vomiting and periods of emesis",morphine-induced emesis; at 0.4 mg/kg morphine,non-significant tendency
same,number (frequency) of vomits,"morphine-induced emesis; at 0.8 mg/kg morphine, 10 mg/kg Compound 95 i.p.",diminished significantly
same,number of retches,"morphine-induced emesis; at 0.8 mg/kg morphine, 10 and 40 mg/kg i.p. Compound 95",significantly reduced
